Biological target: wild type PAN ΔLoop protein (Influenza A virus, UniProt C3W5S0, DEL51-57/DEL61-72/E59G)
Assay type: biochemical, influenza A/California/04/2009 H1N1
Conditions: read-out: FRET IC50

O=C(O)C(=O)CC(=O)c1ccccc1 [DPBA, reference compound]
IC50: 98 ± 3 nM

Source: PMC5719402, “Protein-Structure Assisted Optimization of 4,5-Dihydroxypyrimidine-6-Carboxamide Inhibitors of Influenza Virus Endonuclease” (Scientific Reports, 2017)
